According to the supplement of paper PMC10307832:

Tests used:
Experiment in all cases: relative viability (nuclei count vs DMSO), 5 days (fraction); higher = more cells survive
[1] = compound: CC1=CC(=NN1)NC2=CC(=NC(=N2)/C=C/C3=CC=CC=C3)N4CCN(CC4)C + CC(=O)Nc1cccc(-n2c(=O)n(C3CC3)c(=O)c3c(Nc4ccc(I)cc4F)n(C)c(=O)c(C)c32)c1 [Trametinib] (partner 0.02 µM)
In short: (§1)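 Dosing by pin tool came one day after lung cancer cell lines were seeded in 1536-well plates, using either one drug or a fixed anchor-drug dose plus five library-drug doses (not always all listed) in √10 steps. After 5 days, nuclei were counted on 4× images. Relative viability is treated-well nuclei count divided by vehicle-well nuclei count, and values are medians of duplicate plates.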

[2] = compound: CC1=CC(=NN1)NC2=CC(=NC(=N2)/C=C/C3=CC=CC=C3)N4CCN(CC4)C + CC(=O)c1c(C)c2cnc(Nc3ccc(N4CCNCC4)cn3)nc2n(C2CCCC2)c1=O [Palbociclib] (partner 0.5 µM)
In short: as §1

[3] = compound: CC1=CC(=NN1)NC2=CC(=NC(=N2)/C=C/C3=CC=CC=C3)N4CCN(CC4)C + O=C(c1cc(Cc2n[nH]c(=O)c3ccccc23)ccc1F)N1CCN(C(=O)C2CC2)CC1 [Olaparib] (partner 8 µM)
In short: as §1

Bortezomib + Decitabine = compound: CC(C)C[C@H](NC(=O)[C@H](Cc1ccccc1)NC(=O)c1cnccn1)B(O)O [Bortezomib] + Nc1ncn([C@H]2C[C@H](O)[C@@H](CO)O2)c(=O)n1 [Decitabine] (partner 2 µM)
In short: as §1

Cell Line | relative viability ([1]; first compound 0.08 µM) | relative viability ([1]; first compound 0.253 µM) | relative viability ([1]; first compound 0.8 µM) | relative viability ([1]; first compound 2.53 µM) | relative viability ([1]; first compound 8 µM) | relative viability ([2]; first compound 0.08 µM) | relative viability ([2]; first compound 0.253 µM) | relative viability ([2]; first compound 0.8 µM) | relative viability ([2]; first compound 2.53 µM) | relative viability ([2]; first compound 8 µM) | relative viability ([3]; first compound 0.08 µM) | relative viability ([3]; first compound 0.253 µM) | relative viability ([3]; first compound 0.8 µM) | relative viability ([3]; first compound 2.53 µM) | relative viability ([3]; first compound 8 µM) | relative viability (Bortezomib + Decitabine; first compound 0.0002 µM) | relative viability (Bortezomib + Decitabine; first compound 0.000632 µM) | relative viability (Bortezomib + Decitabine; first compound 0.002 µM) | relative viability (Bortezomib + Decitabine; first compound 0.006325 µM) | relative viability (Bortezomib + Decitabine; first compound 0.02 µM)
EPLC-272H | 0.251 | 0.261 | 0.292 | 0.213 | 0.126 | 0.299 | 0.342 | 0.319 | 0.291 | 0.204 | 0.725 | 0.901 | 0.496 | 0.12 | 0.0643 | 0.378 | 0.348 | 0.321 | 0.0848 | 0.065
NCI-H1975 | 0.343 | 0.333 | 0.4 | 0.254 | 0.105 | 0.533 | 0.754 | 0.593 | 0.285 | 0.111 | 0.75 | 0.842 | 0.726 | 0.389 | 0.115 | 0.411 | 0.371 | 0.176 | 0.126 | 0.115
NCI-H3122 | 0.201 | 0.167 | 0.293 | 0.334 | 0.257 | 0.207 | 0.19 | 0.224 | 0.174 | 0.165 | 0.568 | 0.722 | 0.654 | 0.62 | 0.474 | 0.439 | 0.438 | 0.403 | 0.34 | 0.129
COR-L 105 | 0.427 | 0.453 | 0.416 | 0.276 | 0.27 | 0.432 | 0.381 | 0.406 | 0.275 | 0.323 | 0.591 | 0.688 | 0.691 | 0.658 | 0.27 | 0.695 | 0.614 | 0.526 | 0.33 | 0.278
BEN | 0.901 | 1.07 | 1.02 | 0.895 | 0.31 | 0.421 | 0.459 | 0.511 | 0.437 | 0.328 | 0.985 | 1.17 | 0.987 | 0.606 | 0.275 | 0.716 | 0.801 | 0.678 | 0.522 | 0.337
NCI-H1915 | 0.299 | 0.181 | 0.285 | 0.21 | 0.106 | 0.531 | 0.526 | 0.484 | 0.354 | 0.226 | 0.256 | 0.255 | 0.262 | 0.223 | 0.126 | 0.266 | 0.256 | 0.254 | 0.14 | 0.059
NCI-H1650 | 0.547 | 0.566 | 0.651 | 0.197 | 0.0762 | 0.285 | 0.414 | 0.351 | 0.201 | 0.0872 | 0.831 | 0.831 | 0.764 | 0.748 | 0.0952 | 0.488 | 0.484 | 0.182 | 0.137 | 0.128
NCI-H2009 | 0.309 | 0.22 | 0.215 | 0.139 | 0.0702 | 0.191 | 0.18 | 0.216 | 0.129 | 0.102 | 0.657 | 0.746 | 0.691 | 0.811 | 0.324 | 0.392 | 0.431 | 0.388 | 0.101 | 0.0757
COR-L23 | 0.549 | 0.244 | 0.574 | 0.102 | 0.0853 | 0.315 | 0.33 | 0.24 | 0.127 | 0.0777 | 0.335 | 0.339 | 0.32 | 0.126 | 0.0705 | 0.439 | 0.417 | 0.396 | 0.0939 | 0.0825
NCI-H460 | 0.171 | 0.0318 | 0.129 | 0.0109 | 0.0042 | 0.159 | 0.145 | 0.149 | 0.0195 | 0.0182 | 0.38 | 0.362 | 0.427 | 0.147 | 0.025 | 0.479 | 0.471 | 0.56 | 0.296 | 0.0215
NCI-H522 | 0.856 | 0.676 | 0.823 | 0.688 | 0.362 | 1.04 | 1.19 | 1.31 | 0.726 | 0.357 | 0.64 | 0.647 | 0.61 | 0.472 | 0.319 | 0.777 | 0.621 | 0.575 | 0.432 | 0.386
LCLC-103H | 0.667 | 0.641 | 0.677 | 0.651 | 0.528 | 0.44 | 0.438 | 0.491 | 0.422 | 0.349 | 0.775 | 0.846 | 0.716 | 0.668 | 0.481 | 0.66 | 0.727 | 0.68 | 0.274 | 0.221
HCC-827 | 0.507 | 0.405 | 0.513 | 0.427 | 0.273 | 0.445 | 0.514 | 0.505 | 0.501 | 0.231 | 0.605 | 0.622 | 0.708 | 0.62 | 0.263 | 0.35 | 0.376 | 0.346 | 0.327 | 0.296
NCI-H322M | 0.485 | 0.57 | 0.811 | 0.337 | 0.327 | 0.444 | 0.572 | 0.458 | 0.336 | 0.287 | 0.662 | 0.762 | 0.742 | 0.486 | 0.281 | 0.783 | 0.671 | 0.705 | 0.6 | 0.45
NCI-H1666 | 0.834 | 0.761 | 0.875 | 0.854 | 0.563 | 0.684 | 0.621 | 0.567 | 0.638 | 0.604 | 0.748 | 0.7 | 0.767 | 0.741 | 0.501 | 0.782 | 0.839 | 0.728 | 0.646 | 0.477
NCI-H1437 | 0.532 | 0.621 | 0.577 | 0.272 | 0.223 | 0.304 | 0.317 | 0.307 | 0.231 | 0.152 | 0.603 | 0.664 | 0.631 | 0.416 | 0.138 | 0.585 | 0.585 | 0.595 | 0.214 | 0.223
